PMC3004914, “Classification of Drugs Based on Properties of Sodium Channel Inhibition: A Comparative Automated Patch-Clamp Study” (PLoS ONE, 2010)
pKd, pKi: −log10 of the molar value. Like-named read-outs stand apart in the source and are kept apart here.

Tests used:
[1] = human plasma, cited from earlier work
[2] = molecular target: sodium channels; settings: cited from earlier work; for pKi: read-out: Ki−Lit; for pKd: read-out: Kr−Lit
[3] = molecular target: T1, rNav1.2 sodium channels (HEK-293 cells) (Rattus norvegicus, UniProt P04775); test: 5 Hz train protocol, QPatch automated patch-clamp; assay type: cell-based; settings: for inhibition at 30 µM / inhibition at 300 µM: read-out: Inh (inhibited fraction); for potency estimated from few doses: −90 mV; for potency: in words;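 on UD (use-dependence of the inhibition): UD = (A3/A4)/(A1/A2) as ratios of peak amplitudes from Figure 1A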
T1 sequence (P04775 whole entry): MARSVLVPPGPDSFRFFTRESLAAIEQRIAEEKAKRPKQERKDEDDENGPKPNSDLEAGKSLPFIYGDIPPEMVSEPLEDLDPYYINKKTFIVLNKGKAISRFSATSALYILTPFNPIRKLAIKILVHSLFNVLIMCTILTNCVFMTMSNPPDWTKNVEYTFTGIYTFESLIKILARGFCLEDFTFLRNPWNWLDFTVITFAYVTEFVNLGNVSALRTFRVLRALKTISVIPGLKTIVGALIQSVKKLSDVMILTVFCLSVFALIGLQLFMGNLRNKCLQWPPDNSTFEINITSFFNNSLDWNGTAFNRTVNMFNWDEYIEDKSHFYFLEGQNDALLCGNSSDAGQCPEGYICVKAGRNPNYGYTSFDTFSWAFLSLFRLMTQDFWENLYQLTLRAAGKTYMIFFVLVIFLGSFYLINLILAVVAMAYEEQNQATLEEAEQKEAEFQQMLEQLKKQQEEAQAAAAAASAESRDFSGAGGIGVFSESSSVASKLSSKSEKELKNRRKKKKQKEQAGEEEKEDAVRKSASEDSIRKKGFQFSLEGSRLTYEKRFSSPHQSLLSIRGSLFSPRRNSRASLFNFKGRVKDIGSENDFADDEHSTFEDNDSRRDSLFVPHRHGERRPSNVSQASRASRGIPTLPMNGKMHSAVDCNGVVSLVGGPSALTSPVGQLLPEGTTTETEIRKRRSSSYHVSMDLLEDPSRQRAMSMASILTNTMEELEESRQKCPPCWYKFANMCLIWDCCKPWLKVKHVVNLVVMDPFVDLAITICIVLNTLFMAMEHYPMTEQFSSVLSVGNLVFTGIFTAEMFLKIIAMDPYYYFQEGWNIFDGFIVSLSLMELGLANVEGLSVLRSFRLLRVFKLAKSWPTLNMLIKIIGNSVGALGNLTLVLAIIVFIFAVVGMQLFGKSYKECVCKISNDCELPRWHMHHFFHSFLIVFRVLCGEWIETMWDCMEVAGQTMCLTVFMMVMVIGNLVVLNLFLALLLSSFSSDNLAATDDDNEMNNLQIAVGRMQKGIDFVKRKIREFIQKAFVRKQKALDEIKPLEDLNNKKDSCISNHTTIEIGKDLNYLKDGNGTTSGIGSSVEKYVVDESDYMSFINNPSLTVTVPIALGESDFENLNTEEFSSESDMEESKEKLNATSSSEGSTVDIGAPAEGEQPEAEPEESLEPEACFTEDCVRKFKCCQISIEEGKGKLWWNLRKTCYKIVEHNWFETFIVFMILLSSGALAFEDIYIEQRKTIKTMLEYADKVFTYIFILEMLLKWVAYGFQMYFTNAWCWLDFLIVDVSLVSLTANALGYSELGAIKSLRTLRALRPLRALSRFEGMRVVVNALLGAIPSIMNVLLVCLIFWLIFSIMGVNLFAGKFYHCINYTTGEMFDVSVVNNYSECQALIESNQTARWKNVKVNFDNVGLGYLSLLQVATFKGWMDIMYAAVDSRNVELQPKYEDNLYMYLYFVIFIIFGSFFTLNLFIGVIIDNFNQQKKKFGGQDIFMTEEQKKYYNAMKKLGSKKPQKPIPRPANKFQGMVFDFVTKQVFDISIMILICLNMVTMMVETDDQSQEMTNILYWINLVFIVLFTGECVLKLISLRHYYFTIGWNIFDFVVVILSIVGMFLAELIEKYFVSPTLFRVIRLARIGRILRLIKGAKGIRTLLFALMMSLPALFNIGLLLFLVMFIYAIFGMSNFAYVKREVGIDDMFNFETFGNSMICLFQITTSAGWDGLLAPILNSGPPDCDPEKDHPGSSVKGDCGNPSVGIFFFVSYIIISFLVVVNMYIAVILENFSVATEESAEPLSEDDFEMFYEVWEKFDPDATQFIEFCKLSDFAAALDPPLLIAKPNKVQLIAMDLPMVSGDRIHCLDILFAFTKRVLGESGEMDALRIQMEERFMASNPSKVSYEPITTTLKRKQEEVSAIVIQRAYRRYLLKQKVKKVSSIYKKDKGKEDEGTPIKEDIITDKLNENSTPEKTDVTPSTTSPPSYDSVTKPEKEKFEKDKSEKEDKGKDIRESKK
Source text: The dynamics of the onset and offset of inhibition was monitored using 5 Hz trains of five depolarizing pulses from a holding potential of −90 mV to −10 mV. The trains were repeated every 20 s. Drugs were applied after 10 control trains and 10 trains were delivered in the presence of the drug. The drug was then washed out, and the 10 trains were repeated.
We measured inhibition (Inh; from which we calculated IC50 values as described in Materials and Methods), reversibility of inhibition (Rev) and use-dependence (UD), as well as time constant of onset (τon) and offset (τoff). The calculation of IC50, quantification of Rev and UD, and the determination of time constants are illustrated in Figure 1A. Because τon should be concentration-dependent if we assume a single binding reaction, we excluded it from the analyses. […] Comments on the interpretation of these properties (Rev, […] and UD) are in Results S1.
(§1) A)–D) Peak amplitudes of evoked currents (5 Hz trains of 5 depolarizations from −90 to −10 mV) are plotted against time. Black dots: Control. Grey dots: Drug perfusion. […] Calculation of properties of inhibition is illustrated. […] E) Calculation of Kr and Ki values from steady-state availability curves.
(§2) HEK-293 cells stably expressing rNav1.2 sodium channels were obtained from NeuroSearch (Ballerup, Denmark).
(§3) Cells were automatically prepared for application to the chips (centrifuged and washed twice, then resuspended in extracellular solution) as described previously. Composition of the extracellular solution was: (in mM): 140 NaCl, 3 KCl, 1 CaCl2, 1 MgCl2, 0.1 CdCl2, 20 TEA-Cl, 5 HEPES, adjusted to pH 7.3, Osmolality: ∼320 mOsm.
(§4) All electrophysiological experiments were conducted on Qpatch-16 or QPatch HT instruments using QPlate™ chips. For a detailed description of the instrument and the patch-clamp chips see [37], [38]. Data were sampled at a frequency of 25 kHz and filtered at 5 kHz. […] The amplifier was controlled and the data were collected by the Sophion QPatch client software. For initial data analysis the QPatch software was used. Built-in amplifiers provide an improved method for series resistance compensation. Leak subtraction (based on a standard P/n protocol) was used to subtract the capacitive component of currents.
From this protocol we extracted five parameters, as illustrated in Figure 1A. We calculated inhibition of a single “cc” concentration: Inh = (amplitudectr – amplitudedrug)/amplitudectr.

[4] = molecular target: T1, rNav1.2 sodium channels (HEK-293 cells); test: steady-state inactivation protocol (availability curves), QPatch automated patch-clamp; assay type: cell-based
Source text: as §1
Standard steady-state inactivation protocols were used to measure the shift of steady-state availability curve caused by the drugs. Currents were evoked by a 10 ms test pulse to −10 mV, preceded by 400 ms pre-pulses from −150 to −30 mV. […] Because the inhibition at hyperpolarized potentials (Inh−150), and the shift of the availability curves (ΔV1/2) are both concentration-dependent properties, we calculated affinities to hyperpolarized and depolarized states (“resting state affinity”: Kr, and “inactivated state affinity”: Ki), which, on the other hand, are concentration-independent characteristics of individual drugs. Calculation of Kr and Ki values are described in Materials and Methods, and illustrated in Figure 1E. State-dependence (SD) was quantified as the ratio Kr/Ki.
as §2, §3, §4
Inactivated affinity (Ki) values were calculated assuming a simple four-state model of drug binding and channel gating, using two separate methods: (1) from the shift of the availability curve (ΔV1/2), the slope of the Boltzmann fit of the availability curve (k) and Kr, using the formula described by Bean, Cohen and Tsien (Ki−ΔV1/2; see Figure 1E), or (2) from the apparent affinity (Kapp) at a certain pre-pulse potential, which was calculated from the inhibition (e.g. Inh−60) as described above, and the availability (h) at the same pre-pulse potential, using the formula from Kuo and Bean (Figure 1E). […] (Arithmetic means and SEM values are given in Results S7.)

[5] = 30 μM, 500 s assigned where irreversible
[6] = HEK293, 30 μM, −90 mV holding potential, 5 Hz train
[7] = HEK293, calculated from Inh at single concentration 30 μM, 5 Hz train, read-out: IC50
[8] = HEK293, read-out: Inh (inhibited fraction) at holding potential −150 mV
[9] = 300 μM, 3 s assigned where too short to be resolved
[10] = 300 μM, Rev = A5/A1 after washout
[11] = HEK293, 300 μM, −90 mV holding potential, 5 Hz train
[12] = HEK293, calculated from Inh at single concentration 300 μM, 5 Hz train, read-out: IC50
[13] = HEK293, 300 µM, read-out: Inh (inhibited fraction) at holding potential −150 mV
[14] = arithmetic mean, 300 µM, read-out: Ki-Kapp arith
[15] = arithmetic mean, 300 µM, read-out: Ki-ΔV1/2 arith
[16] = arithmetic mean, 300 µM, read-out: Kr arith
[17] = geometric mean, from Inh at −150 mV, 300 µM, read-out: Kr (resting state affinity)
[18] = geometric mean, from apparent affinity, 300 µM, read-out: Ki−Kapp (inactivated state affinity)
[19] = geometric mean, from shift of availability curve, 300 µM, read-out: Ki−ΔV1/2 (inactivated state affinity)
[20] = 100 μM, 500 s assigned where irreversible
[21] = 100 μM, Rev = A5/A1 after washout

Row | Compound | plasma conc. ([1]; as printed in each cell) | plasma conc. ([1]; as printed in the µg/ml cell) [µM] | pKi ([2]; averaged literature data) | pKd ([2]; averaged literature data) | τon ([3]; 30 μM) [s] | UD (use-dependence of the inhibition) ([3]; 30 μM, 5 Hz train) | τoff [3, 5] [s] | inhibition at 30 µM [3, 6] [%] | potency estimated from few doses [3, 7] [µM] | inhibition at 30 µM [4, 8] [%] | τoff ([3]; 300 μM) [s] | τon [3, 9] [s] | UD (use-dependence of the inhibition) ([3]; 300 μM, 5 Hz train) | Rev (reversibility) [3, 10] | inhibition at 300 µM [3, 11] [%] | potency estimated from few doses [3, 12] [µM] | potency [3] | ΔV1/2 (shift of availability curve) ([4]; 300 μM) [mV] | inhibition at 300 µM [4, 13] [%] | pKi [4, 14] | also measured
1 | CNCCCN1c2ccccc2CCc2ccccc21 [DMI, Desipramine] | 0.1 [44] µg/ml | 0.330 | 5.94 | 4.53 | 32.02 | 1.32 | 51.82 | 62 | 18.3 | 35 | – | – | – | – | – | – | – | – | – | – | Rev (reversibility) ([3]; 30 μM, Rev = A5/A1 after washout): 0.43
2 | O=C1NC(=O)C(c2ccccc2)(c2ccccc2)N1 [DPH, 5,5-diphenyl-hydantoin] | 10 [44] µg/ml | 39.64 | 4.79 | 3.15 | – | – | – | – | – | – | 15.96 | 5.20 | 1.01 | 0.75 | 18 | 1390 | among the least potent SCIs | −4.93 | 12 | 4.11 | pKi [4, 15]: 3.76; pKd [4, 16]: 2.53; pKd [4, 17]: 2.60; pKi [4, 18]: 4.15; pKi [4, 19]: 3.83
3 | COc1ccc(C(CN(C)C)C2(O)CCCCC2)cc1 (centres unmarked) [VFX, Venlafaxine] | 0.17 [44] µg/ml | 0.532 | 6.19 | – | – | – | – | – | – | – | – | – | – | – | – | – | – | – | – | – | pKd [2]: 5.10; τon ([3]; 100 μM): 4.85 s; UD (use-dependence of the inhibition) ([3]; 100 μM, 5 Hz train): 1.05; τoff [3, 20]: 5.2 s; Rev (reversibility) [3, 21]: 0.89; potency estimated from few doses ([3]; HEK293, read-out: IC50, calculated from Inh at single concentration 100 μM, 5 Hz train): 727 µM; inhibition at 100 µM ([3]; HEK293, read-out: Inh (inhibited fraction)): 12%; ΔV1/2 (shift of availability curve) ([4]; 100 μM): −4.66 mV; inhibition at 100 µM [4, 8]: 11%; pKi ([4]; Ki-Kapp arith, arithmetic mean, 100 µM): 4.14; pKi ([4]; Ki-ΔV1/2 arith, arithmetic mean, 100 µM): 4.12; pKi ([4]; Ki−Kapp (inactivated state affinity), geometric mean, from apparent affinity, 100 µM): 4.20; pKi ([4]; Ki−ΔV1/2 (inactivated state affinity), geometric mean, from shift of availability curve, 100 µM): 4.23; pKd ([4]; Kr (resting state affinity), geometric mean, from Inh at −150 mV, 100 µM): 3.05; pKd ([4]; Kr arith, arithmetic mean, 100 µM): 3.00
4 | NC(=O)N1c2ccccc2C=Cc2ccccc21 [CBZ, Carbamazepine] | 9.3 [44] µg/ml | 39.362 | 4.66 | 3.02 | – | – | – | – | – | – | 10.01 | 3 | 0.98 | 0.87 | 29 | 718 | among the least potent SCIs | −11.4 | 21 | 4.57 | pKi [4, 15]: 4.40; pKd [4, 16]: 2.93; pKd [4, 17]: 2.93; pKi [4, 18]: 4.58; pKi [4, 19]: 4.40
5 | C[Si](C)(Cc1ccc(F)cc1)CN1CCCCC1 [SIL, Silperisone] | 0.45 [56] µg/ml | 1.484 | 4.46 | 3.47 | – | – | – | – | – | – | – | – | – | – | – | – | – | – | – | – | τon ([3]; 100 μM): 4.1 s; UD (use-dependence of the inhibition) ([3]; 100 μM, 5 Hz train): 1.16; τoff [3, 20]: 15.21 s; Rev (reversibility) [3, 21]: 0.8; Inh (inhibited fraction) ([3]; 100 μM, −90 mV holding potential, 5 Hz train): 0.45; potency estimated from few doses ([3]; calculated from Inh at single concentration 100 μM, 5 Hz train, read-out: IC50): 121 µM; Inh (inhibited fraction) at holding potential −150 mV ([4]; 100 μM): 0.43; ΔV1/2 (shift of availability curve) ([4]; 100 μM): −7.66 mV; pKi ([4]; arithmetic mean, 100 µM, read-out: Ki-Kapp arith): 5.15; pKi ([4]; arithmetic mean, 100 µM, read-out: Ki-ΔV1/2 arith): 4.84; pKd ([4]; arithmetic mean, 100 µM, read-out: Kr arith): 3.87; pKd ([4]; geometric mean, from Inh at −150 mV, 100 µM, read-out: Kr (resting state affinity)): 3.88; pKi ([4]; geometric mean, from apparent affinity, 100 µM, read-out: Ki−Kapp (inactivated state affinity)): 5.17; pKi ([4]; geometric mean, from shift of availability curve, 100 µM, read-out: Ki−ΔV1/2 (inactivated state affinity)): 4.85
6 | Nc1nc2ccc(OC(F)(F)F)cc2s1 [RIL, Riluzole] | 0.17 [44] µg/ml | 0.739 | 6.31 | 4.20 | 3.9 | 0.95 | 17.6 | 27 | 81 | 8 | – | – | – | – | – | – | – | – | – | – | Rev (reversibility) [3]: 0.52; use-dependence (UD) ([3]; 5 Hz train): no use-dependence; inhibition at 100 µM ([4]; HEK293, 100 µM, read-out: Inh (inhibited fraction) at holding potential −150 mV): 22%
